From patent US12702135B2, “Mitigation of ammonia, odor and greenhouse gases” (Syddansk Universitet, priority 2019, dated 2026)
Values joined by “and” are separate entries in the source; they are usually repeats but may differ in a detail not shown here. Equal values may be shown once.

Experiments:
Klebsiella pneumoniae = assay: pH-based urease activity assay, pure K. pneumoniae culture in M9U minimal medium; format: cell-based, Klebsiella pneumoniae subsp. pneumoniae; details: for Reduction in ureolytic activity: pure K. pneumonia culture
Description: (§1) The urease stock was stored at −20° C.
All M9U components except glucose, urea, FeCl2, ZnSO4, and vitamins were mixed, the pH adjusted to 6.8 and the medium was autoclaved. Glucose, urea, FeCl2, ZnSO4, and BME Vitamin solution were sterile-filtered and added aseptically after autoclaving. Urea was added within 24 h before the medium was used.
(§2) The assay consists of a buffered urea solution containing the pH indicator phenol red and the inhibitor to be tested. […] Each compound was screened at three concentrations (10×, 100× and 1000× dilutions of the stock) in triplicate against K. pneumoniae and purified JBU. To this solution ureolytic bacteria or urease is added and the solution is incubated in a plate reader which every 15 minutes measure the absorbance at 557 nm and 630 nm (A557 and A630). Thus, inhibitor and bacteria/urease was not pre-incubated. For microbial urease activity experiments, K. pneumoniae and E. coli were grown overnight in the respective growth media. […] To each well 80 μl bacterial suspension, 100 μl growth media, and 20 μl inhibitor solution was added. Increase in absorbance at 557 nm reflects increasing pH (until saturation of the indicator at pH 8.2) and increase in absorbance at 630 nm reflects bacterial growth (optical density). In the case of ureolytic bacteria or enzymes in urea solution the increase in pH can be ascribed to the production of alkaline NH3. […] In the bacterial assay inhibitors were evaluated based on three parameters: maximal or final pH increase, onset of pH increase and rate of pH increase. The relative maximal pH increase was determined as pHmax=A557-A630. The onset of the pH increase was defined as the point where the ureolytic production of NH3 overcame the buffer capacity resulting in a colour change of the phenol red indicator measured as an absorbance increase at 557 nm. […] For each inhibitor the influence on the bacterial growth was also evaluated by identifying the end of the lag phase (onset of exponential growth), the growth rate and the maximal OD630.

pig manure slurry [1] = assay: total ammoniacal nitrogen (Kjeldahl) in fresh pig manure slurry
Description: (§3) Total ammoniacal nitrogen (TAN) was measured in pig manure slurry using the Kjeldahl method. This method consists of adding 32% NaOH to the manure slurry sample in order to turn all NH4^+ in the sample to NH3. The sample is then heated in a closed system causing the NH3 to evaporate into a trap containing H3BO3 forming NH4[B(OH)4]. The remaining acid is then back-titrated with dilute HCl to give the concentration.
(§4) The pig manure slurry was made fresh on the day of measurement by mixing 10 g of feces with 30 ml of urine. Vials of approximately 4.5 ml of manure slurry were prepared. To each vial 0.5 ml of appropriate amounts of inhibitors were added. Controls were vials of 4.5 ml manure slurry with 0.5 ml H2O. After mixing inhibitors and pig manure slurry the vials were sealed and incubated at 25° C. with shaking for 5 h. After incubation, the ureolysis reaction was rapidly quenched by addition of 8 ml 32% NaOH before the sample was transferred to the Kjeldahl instrument for measurements.
as §3, with “the manure sample in” for “the manure slurry sample in”
as §4, with “of either 30 mM TA and 10 mM NaF or 50 mM TA and 10 mM NaF was added. Vials containing 0.5 ml” for “of appropriate amounts”, “of either 51 mg/ml MTA (equal to 30 mM TA on a mass basis) or 85 mg/ml MTA (equal to 50 mM TA on a mass basis) with 10 mM TA and 10 mM NaF” for “of inhibitors”, “were also prepared.” for “were added.”, “ml H2O or 10 mM NaF.” for “ml H2O.”
The pig manure slurry was made fresh on the day of measurement by mixing 10 g of feces with 30 ml of urine. Manure separation was simulated by mixing 10 g of feces with 60 ml of urine for a ratio of 1:6 w:V.
For the “normal” ratio or unseparated manure slurry (1:3) 4.5 ml manure was placed in vials. Then 0.5 ml of TA (50 mM) and NaF (10 mM) were added to the manure slurry. For the separated manure slurry (1:6) 4.5 ml were mixed with 0.5 ml of TA (25 mM) and NaF (10 mM).
Controls were vials of 4.5 ml manure slurry with 0.5 ml H2O at either 1:3 or 1:6 w:V ratios of feces:urine. After mixing inhibitors and pig manure slurry the vials were sealed and incubated at 25° C. with shaking for 5 h. After incubation, the ureolysis reaction was rapidly quenched by addition of 8 ml 32% NaOH before the sample was transferred to the Kjeldahl instrument for measurements.
Tannic acid (TA), sodium fluoride (NaF), chlorogenic acid (CA), lignosulfonic acid (LA), lignin (L), chitosan low molecular weight (CLMW), NaOH, HCl and H3BO3 were purchased from Sigma-Aldrich. The mixed tannins (75% tannins) used in this study (VINOFERM TANNOROUGE) were purchased from Brouwland. The product contains tannins from chestnut. The green tea extract was purchased from Slimming Labs (Groeningen, Netherlands) and consists of 90% polyphenols of which 40% are epigallocatechin gallate. Total ammoniacal nitrogen (TAN) was measured in pig manure slurry using the Kjeldahl method as described in example 2 and example 7. The various compounds were tested as described for MTA in example 7 using appropriate concentrations.
Initial screenings were done in duplicate and the results are given as the average of the two measurements with no standard deviation (SD). […]

jack bean urease = target: T1, jack bean urease (Canavalia ensiformis, UniProt P07374); assay: cell-free urease activity assay (pH-based); format: biochemical
T1 construct: purchased Sigma-Aldrich
T1 sequence (P07374 whole entry, looked up): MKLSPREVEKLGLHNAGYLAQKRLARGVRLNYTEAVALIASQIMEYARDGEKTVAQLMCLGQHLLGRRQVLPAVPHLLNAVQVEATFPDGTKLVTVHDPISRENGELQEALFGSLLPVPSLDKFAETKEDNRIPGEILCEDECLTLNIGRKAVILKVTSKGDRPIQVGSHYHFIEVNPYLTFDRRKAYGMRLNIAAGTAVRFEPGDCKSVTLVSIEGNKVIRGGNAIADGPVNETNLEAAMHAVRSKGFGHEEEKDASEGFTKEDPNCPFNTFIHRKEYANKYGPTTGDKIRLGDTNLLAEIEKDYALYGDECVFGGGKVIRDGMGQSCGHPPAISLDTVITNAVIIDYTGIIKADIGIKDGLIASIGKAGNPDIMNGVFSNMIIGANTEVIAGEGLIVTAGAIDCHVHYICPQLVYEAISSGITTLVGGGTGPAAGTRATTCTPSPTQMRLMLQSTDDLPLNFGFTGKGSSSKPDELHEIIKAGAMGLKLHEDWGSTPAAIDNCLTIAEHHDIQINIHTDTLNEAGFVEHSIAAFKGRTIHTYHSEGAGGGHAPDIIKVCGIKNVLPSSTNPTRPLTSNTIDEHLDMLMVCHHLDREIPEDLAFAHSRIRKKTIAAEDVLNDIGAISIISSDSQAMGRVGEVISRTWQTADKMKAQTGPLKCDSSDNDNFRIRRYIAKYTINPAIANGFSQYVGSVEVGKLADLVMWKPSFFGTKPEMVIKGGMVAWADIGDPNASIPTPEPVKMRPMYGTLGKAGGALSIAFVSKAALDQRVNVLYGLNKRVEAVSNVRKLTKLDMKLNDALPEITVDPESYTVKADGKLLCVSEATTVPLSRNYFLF
Description: as §1, §2
In urease inhibition assays 5 μl enzyme solution, 175 μl growth media, and 20 μl inhibitor solution were added.

pig manure slurry [2] = assay: headspace ammonia emissions from pig manure slurry (PTR-MS); details: Tannic acid 10 mM; cumulated headspace emission, 22-24° C.
Description: Ammonia emissions were measured in headspace experiments at ambient temperature (22-24° C.). Pig urine (30 ml) and 10 g of frozen pig feces were thawed and added to each of nine 100 mL reactors and mixed with tannic acid and sodium fluoride in different concentrations. Tannic acid and sodium fluoride was purchased from Sigma-Aldrich. A flow of 0.5 L±10% air/min was continuously applied to the headspace of each reactor with mass flow controllers (Bronkhorst EL-FLOW, Ruurlo, Netherlands). The air flow carried the emitted ammonia from the pig manure slurry in the reactors to a proton transfer reaction mass spectrometer (PTR-MS) (Ionicon Analytik, Innsbruck, Austria) for quantification. A PEEK valve (Bio-Chem Valve Inc., Boonton, NJ, USA) was used to switch between the nine reactors every 12 min. The PTR-MS was operated at a reduced electric field of 142 Townsend (2.15 mbar and 75° C. in the drift tube). Every 24 h, 3 ml of pig urine and 1 g of pig feces was thawed and supplemented to the reactors. Tannic acid and sodium fluoride was also supplemented every 24 h to maintain a constant inhibitor concentration in the manure. For acidification treatment, the manure slurry was acidified with H2SO4 to pH 5.5 every 24 h. The gas emissions were monitored continuously for 12 days. […]

[3] = test system: 12 days old pig manure slurry; assay: methane production in anaerobic inoculum flasks (GC-FID); details: 10 mM TA alone, 3 weeks
Description: This was done by transferring the TA-NaF treated manure slurry used in example 3 to 100 mL inoculum flasks on day 12. The manure slurry was weighed before inoculation and the headspace was flushed with helium (Linde Group) prior to encapsulation. Gas from the headspace of the inoculum flasks was sampled into 6 mL vacuum sealed exetainer vials (Labco Limited, Lampeter, UK) every week the following three weeks and stored for later CH4 analysis on a GC-FID. After sampling from the inoculum flasks, the pressure in the headspace was equalized with a needle.

[4] = weak acidity due to the numerous phenol groups; cited from earlier work

For `CC(=O)NO` [AHA, acetohydroxamic acid], the “Reduction in ureolytic activity” value (Klebsiella pneumoniae; AHA 0.2 mM) was 14 ± 6%, the “Reduction in ammonia production (Mean)” value (pig manure slurry [1]; AHA 0.5 mM, pig manure slurry) was 14% and 14 ± 2.3% and the “Reduction in ammonia production (Mean)” value (pig manure slurry [1]; AHA 1 mM, pig manure slurry) was 24 ± 3.4%.

In the case of `O=C(/C=C/c1ccc(O)c(O)c1)O[C@@H]1C[C@](O)(C(=O)O)C[C@@H](O)[C@H]1O` [CA, chlorogenic acid], the “Reduction in ammonia production (Mean ± SD)” value (from here on “Reduction … (Mean ± SD)”) (pig manure slurry [1]; CA 5 mM (2.3 mg/ml), pig manure slurry, duplicate, no SD) is reported as 6%.

In the case of `NCCS` [Cysteamine], the “Reduction in ammonia production” value (pig manure slurry [1]; Cysteamine 1 mM, pig manure slurry, 25° C., 5 h) is reported as 25%.

In the case of `O=C(O)CNCC(=O)O` [Iminodiacetic acid], the “Reduction in ammonia production” value (pig manure slurry [1]; Iminodiacetic acid 0.8 mM, pig manure slurry, 25° C., 5 h) is reported as 19%.

With `O=C1C=CC(=O)N1c1ccccc1` [N-phenylmaleimide] the “Reduction in ammonia production” value (pig manure slurry [1]; N-phenylmaleimide 3.9 mM, pig manure slurry, 25° C., 5 h) was 59%.

In the case of `[F-].[Na+]` [NaF, sodium fluoride], the inhibition of ureolysis (Klebsiella pneumoniae; 0.3 mM fluoride alone) is reported as 14.7%, the “ureolytic activity (pH change) relative to the uninhibited control” value (Klebsiella pneumoniae; 1.0 mM) is reported as 0 and the “reduction of pH change (FIG. 5)” value (Klebsiella pneumoniae; NaF 0.3 mM) is reported as 12-15%. For the same compound, the “reduction in initial rate of pH change” value (jack bean urease; 1.0 mM) was 89.4±1.0%, the “reduction of pH change” value (jack bean urease; 1.0 mM) was 80.6±3.0% and the “Reduction in concentration of NH3” value (pig manure slurry [1]; 1 mM NaF, pig manure slurry, 25° C., 5 h (Example 7)) was 17.7 ± 4%. The “Reduction … (Mean ± SD)” value (pig manure slurry [1]; NaF 1 mM, pig manure slurry (Example 10)) was 9 ± 1.0%, the “Reduction in ammonia production (Mean)” value (pig manure slurry [1]; NaF 1 mM, pig manure slurry (Example 11)) was 9 ± 1.0% and the “Reduction in ammonia production” value (pig manure slurry [1]; NaF 1 mM, pig manure slurry, 25° C., 5 h (Example 2)) was 24%. The “Reduction in ammonia production” value (pig manure slurry [1]; in solution, NaF 1 mM, pig manure slurry, 25° C., 5 h (Example 3)) was 8.6%.

With `O=C(OC[C@H]1O[C@@H](OC(=O)c2cc(O)c(O)c(OC(=O)c3cc(O)c(O)c(O)c3)c2)[C@H](OC(=O)c2cc(O)c(O)c(OC(=O)c3cc(O)c(O)c(O)c3)c2)[C@@H](OC(=O)c2cc(O)c(O)c(OC(=O)c3cc(O)c(O)c(O)c3)c2)[C@@H]1OC(=O)c1cc(O)c(O)c(OC(=O)c2cc(O)c(O)c(O)c2)c1)c1cc(O)c(O)c(OC(=O)c2cc(O)c(O)c(O)c2)c1` [Tannic acid, tannic acid] the inhibition at 1000 µM (Klebsiella pneumoniae; Klebsiella pneumoniae, 1.0 mM, read-out: reduction of ureolytic activity (pH change) relative to uninhibited control) was 21.3 ± 1.3%, the “Reduction in ureolytic activity” value (Klebsiella pneumoniae; TA 0.05 mM, listed as TA) was 16% and 16 ± 5% and the “Reduction in ureolytic activity” value (Klebsiella pneumoniae; TA 0.1 mM) was 9.4 ± 3%. The “Reduction in ureolytic activity” value (Klebsiella pneumoniae; TA 0.2 mM) was 3.9 ± 6%, the “inhibition of ureolytic activity” value (Klebsiella pneumoniae; tannic acid 0-0.8 mM alone) was 0-12% and the “ureolytic pH change compared to the uninhibited control (FIG. 5)” value (Klebsiella pneumoniae; tannic acid alone up to 0.8 mM) was “does not reduce the pH change significantly”. For the same compound, the “pH change (reduced to)” value (jack bean urease; 0.1 mM) was 0, the “Reduction in ammonia production (Mean)” value (pig manure slurry [1]; TA 3 mM, pig manure slurry (Example 11)) was 0 ± 4% and the “Reduction … (Mean ± SD)” value (pig manure slurry [1]; TA 5 mM (8.5 mg/ml), pig manure slurry (Example 10)) was 18 ± 1.3%. The “Reduction in ammonia production (Mean)” value (pig manure slurry [1]; TA 5 mM, pig manure slurry (Example 11)) was 18 ± 1.3%, the “Reduction in ammonia production” value (pig manure slurry [1]; Tannic acid 10 mM, pig manure slurry, 25° C., 5 h (Example 2)) was 17.6%^ and the “Reduction in ammonia production” value (pig manure slurry [1]; in solution, Tannic acid 5 mM, pig manure slurry, 25° C., 5 h (Example 3)) was 17.6%. The “Reduction in ammonia production” value (pig manure slurry [1]; in solution, Tannic acid 10 mM, pig manure slurry, 25° C., 5 h (Example 3)) was 35.2%, the “Reduction in ammonia emissions, 12 days” value (pig manure slurry [2]) was 88.4% and the “methane production, % of the uninhibited control (FIG. 3B)” value [3] was 0.01%. The pKa [4] was “around 6”.
